Test results taken from the NIST ThermoML archive (doi:10.1021/je8007759).

Assay: xn = mol fraction of the nth substance listed

CC1CCC(=O)O1 (stereo not given) [γ-valerolactone] + O=C=O
Fluid (supercritical or subcritical phases), Pycnometric method
Details	mass density [kg/m3]
313.2 K, 10860 kPa, x1 = 0.1	942
313.2 K, 10880 kPa, x1 = 0.025	833
313.2 K, 11030 kPa, x1 = 0.01	778
313.2 K, 11160 kPa, x1 = 0.025	840
313.2 K, 11200 kPa, x1 = 0.05	872
313.2 K, 11230 kPa, x1 = 0.15	981
313.2 K, 11440 kPa, x1 = 0.01	789
313.2 K, 11450 kPa, x1 = 0.025	846
313.2 K, 11640 kPa, x1 = 0.1	949
313.2 K, 11660 kPa, x1 = 0.05	878
313.2 K, 11770 kPa, x1 = 0.025	852
313.2 K, 11850 kPa, x1 = 0.15	985
313.2 K, 11950 kPa, x1 = 0.01	802
313.2 K, 12460 kPa, x1 = 0.15	987
313.2 K, 12490 kPa, x1 = 0.1	956
313.2 K, 13220 kPa, x1 = 0.15	992
313.2 K, 13510 kPa, x1 = 0.1	964
313.2 K, 13960 kPa, x1 = 0.15	995
313.2 K, 14650 kPa, x1 = 0.15	999
313.2 K, 15420 kPa, x1 = 0.15	1002
313.2 K, 16160 kPa, x1 = 0.15	1006
313.2 K, 16920 kPa, x1 = 0.15	1009
316.2 K, 8740 kPa, x1 = 0.025	683
316.2 K, 8760 kPa, x1 = 0.025	687
316.2 K, 8790 kPa, x1 = 0.025	692
316.2 K, 8810 kPa, x1 = 0.025	696
316.2 K, 8830 kPa, x1 = 0.025	700
316.2 K, 8880 kPa, x1 = 0.025	704
316.2 K, 8910 kPa, x1 = 0.025	709
316.2 K, 8960 kPa, x1 = 0.025	713
316.2 K, 8990 kPa, x1 = 0.025	718
316.2 K, 9060 kPa, x1 = 0.025	723
316.2 K, 9110 kPa, x1 = 0.025	728
316.2 K, 9180 kPa, x1 = 0.025	732
316.2 K, 9250 kPa, x1 = 0.025	737
316.2 K, 9320 kPa, x1 = 0.025	742
316.2 K, 9410 kPa, x1 = 0.025	747
316.2 K, 9500 kPa, x1 = 0.025	752
316.2 K, 9590 kPa, x1 = 0.025	758
316.2 K, 9700 kPa, x1 = 0.025	762
316.2 K, 9800 kPa, x1 = 0.025	768
316.2 K, 9930 kPa, x1 = 0.025	772
316.2 K, 10060 kPa, x1 = 0.025	778
316.2 K, 10210 kPa, x1 = 0.025	783
316.2 K, 10360 kPa, x1 = 0.025	788
316.2 K, 10520 kPa, x1 = 0.025	794
316.2 K, 10720 kPa, x1 = 0.025	800
316.2 K, 10910 kPa, x1 = 0.025	806
316.2 K, 11110 kPa, x1 = 0.025	812
316.2 K, 11350 kPa, x1 = 0.025	818
316.2 K, 11610 kPa, x1 = 0.025	824
316.2 K, 11880 kPa, x1 = 0.025	830
316.2 K, 12200 kPa, x1 = 0.025	836
316.2 K, 12480 kPa, x1 = 0.025	842
318 K, 9060 kPa, x1 = 0.01	519
318 K, 9080 kPa, x1 = 0.01	522
318 K, 9090 kPa, x1 = 0.01	525
318 K, 9110 kPa, x1 = 0.01	529
318 K, 9120 kPa, x1 = 0.01	532
318 K, 9140 kPa, x1 = 0.01	535
318 K, 9180 kPa, x1 = 0.01	542
318 K, 9180 kPa, x1 = 0.15	949
318 K, 9190 kPa, x1 = 0.025	680
318 K, 9220 kPa, x1 = 0.01	549
318 K, 9230 kPa, x1 = 0.025	683
318 K, 9250 kPa, x1 = 0.01	556
318 K, 9260 kPa, x1 = 0.025	688
318 K, 9270 kPa, x1 = 0.05	776
318 K, 9290 kPa, x1 = 0.01	563
318 K, 9290 kPa, x1 = 0.025	692
318 K, 9330 kPa, x1 = 0.01	570
318 K, 9330 kPa, x1 = 0.05	782
318 K, 9340 kPa, x1 = 0.025	696
318 K, 9380 kPa, x1 = 0.01	578
318 K, 9380 kPa, x1 = 0.025	700
318 K, 9410 kPa, x1 = 0.05	787
318 K, 9410 kPa, x1 = 0.1	894
318 K, 9430 kPa, x1 = 0.01	586
318 K, 9430 kPa, x1 = 0.025	705
318 K, 9480 kPa, x1 = 0.01	593
318 K, 9480 kPa, x1 = 0.025	709
318 K, 9480 kPa, x1 = 0.05	792
318 K, 9490 kPa, x1 = 0.15	952
318 K, 9530 kPa, x1 = 0.025	714
318 K, 9540 kPa, x1 = 0.01	602
318 K, 9540 kPa, x1 = 0.1	896
318 K, 9590 kPa, x1 = 0.025	718
318 K, 9600 kPa, x1 = 0.05	797
318 K, 9610 kPa, x1 = 0.01	611
318 K, 9660 kPa, x1 = 0.025	723
318 K, 9690 kPa, x1 = 0.01	619
318 K, 9730 kPa, x1 = 0.025	728
318 K, 9730 kPa, x1 = 0.1	900
318 K, 9760 kPa, x1 = 0.05	803
318 K, 9800 kPa, x1 = 0.01	631
318 K, 9800 kPa, x1 = 0.025	732
318 K, 9860 kPa, x1 = 0.025	737
318 K, 9880 kPa, x1 = 0.1	903
318 K, 9930 kPa, x1 = 0.01	642
318 K, 9940 kPa, x1 = 0.05	809
318 K, 9940 kPa, x1 = 0.15	956
318 K, 9950 kPa, x1 = 0.025	742
318 K, 10020 kPa, x1 = 0.01	652
318 K, 10050 kPa, x1 = 0.025	747
318 K, 10080 kPa, x1 = 0.01	657
318 K, 10130 kPa, x1 = 0.05	814
318 K, 10140 kPa, x1 = 0.1	906
318 K, 10150 kPa, x1 = 0.025	752
318 K, 10260 kPa, x1 = 0.025	757
318 K, 10320 kPa, x1 = 0.15	959
318 K, 10340 kPa, x1 = 0.05	820
318 K, 10340 kPa, x1 = 0.1	909
318 K, 10380 kPa, x1 = 0.025	762
318 K, 10500 kPa, x1 = 0.025	768
318 K, 10600 kPa, x1 = 0.05	825
318 K, 10610 kPa, x1 = 0.1	912
318 K, 10640 kPa, x1 = 0.025	773
318 K, 10750 kPa, x1 = 0.01	695
318 K, 10800 kPa, x1 = 0.025	779
318 K, 10850 kPa, x1 = 0.1	916
318 K, 10870 kPa, x1 = 0.05	832
318 K, 10920 kPa, x1 = 0.15	962
318 K, 10960 kPa, x1 = 0.025	784
318 K, 11040 kPa, x1 = 0.01	711
318 K, 11120 kPa, x1 = 0.025	789
318 K, 11140 kPa, x1 = 0.1	919
318 K, 11160 kPa, x1 = 0.05	838
318 K, 11320 kPa, x1 = 0.025	795
318 K, 11440 kPa, x1 = 0.1	922
318 K, 11470 kPa, x1 = 0.05	843
318 K, 11480 kPa, x1 = 0.15	966
318 K, 11520 kPa, x1 = 0.025	801
318 K, 11740 kPa, x1 = 0.025	806
318 K, 11750 kPa, x1 = 0.1	925
318 K, 11860 kPa, x1 = 0.05	850
318 K, 11950 kPa, x1 = 0.025	813
318 K, 11960 kPa, x1 = 0.15	969
318 K, 12090 kPa, x1 = 0.1	928
318 K, 12210 kPa, x1 = 0.025	818
318 K, 12240 kPa, x1 = 0.05	857
318 K, 12490 kPa, x1 = 0.025	824
318 K, 12600 kPa, x1 = 0.15	972
318 K, 12670 kPa, x1 = 0.05	862
318 K, 12770 kPa, x1 = 0.025	830
318 K, 12780 kPa, x1 = 0.1	935
318 K, 13080 kPa, x1 = 0.025	836
318 K, 13090 kPa, x1 = 0.15	975
318 K, 13150 kPa, x1 = 0.05	869
318 K, 13490 kPa, x1 = 0.025	843
318 K, 13580 kPa, x1 = 0.1	943
318 K, 13710 kPa, x1 = 0.15	978
318 K, 13740 kPa, x1 = 0.025	849
318 K, 13850 kPa, x1 = 0.05	878
318 K, 13990 kPa, x1 = 0.1	945
318 K, 14310 kPa, x1 = 0.15	982
318 K, 14380 kPa, x1 = 0.1	949
318 K, 15060 kPa, x1 = 0.15	986
318 K, 15680 kPa, x1 = 0.15	989
318 K, 16350 kPa, x1 = 0.15	992
318 K, 16950 kPa, x1 = 0.15	995
322.9 K, 9850 kPa, x1 = 0.01	518

mass density [kg/m3], high pressure variable cell
Details	x1 = 0.01	x1 = 0.025	x1 = 0.05	x1 = 0.1	x1 = 0.15
313.2 K, Liquid	539	723	803	910	961
318 K, Gas	516	677	–	–	–
318 K, Liquid	–	–	–	891	948
